Laboratory results taken from patent US6596772B1, “Phosphate mimics and methods of treatment using phosphatase inhibitors” (Sugen, Inc., priority 1999, dated 2003).

How the values were obtained:
Test in all cases: PTP IC50 assay, pNPP or FDP as substrate
Assay type in all cases: biochemical
PTP SHP2 = biological target: T1, PTP SHP2 (Homo sapiens, UniProt Q06124); conditions: pNPP or FDP as substrate, 25° C.; read-out: PTP IC50 SHP2
T1 construct: The catalytic domain was amplified using the following oligonucleotides; made in house; host or cells: Sf-9 insect cells (pFastBac-G2T)
T1 sequence (Q06124 247-517 limits assumed): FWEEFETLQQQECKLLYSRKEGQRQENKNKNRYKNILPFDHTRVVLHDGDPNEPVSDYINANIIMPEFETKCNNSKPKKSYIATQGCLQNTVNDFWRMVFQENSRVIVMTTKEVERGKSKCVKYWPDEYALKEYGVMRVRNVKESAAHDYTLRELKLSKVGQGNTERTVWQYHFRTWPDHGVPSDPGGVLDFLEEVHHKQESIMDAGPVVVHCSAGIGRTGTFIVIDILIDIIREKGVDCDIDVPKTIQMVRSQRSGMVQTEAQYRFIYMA
Experimental: (§1) The following in vitro assay procedure is preferred to determine the level of activity and effect of the different compounds of the present invention on one or more of the PTPs. Similar assays can be designed along the same lines for any PTP using techniques well known in the art.
(§2) The catalytic assays described herein are performed in a 96-well format. The general procedure begins with the determination of PTP optimal pH using a three-component buffer system that minimizes ionic strength variations across a wide range of buffer pH. Next, the Michaelis-Menten constant, or Km, is determined for each specific substrate-PTP system. This Km value is subsequently used as the substrate reaction concentration for compound screening. Finally, the test PTP is exposed to varying concentrations of compound for fifteen minutes and allowed to react with substrate for ten minutes. The results are plotted as percent inhibition versus compound concentration and the IC50 interpolated from the plot.
(§3) All assays were performed using pNPP or FDP as substrate. The optimum pH was determined for each PTP used.
(§4) PTPase activity was assayed at 25° C. in a 100-μl reaction mixture containing an appropriate concentration of pNPP or FDP as substrate. The reaction was initiated by addition of the PTP and quenched after 10 min by addition of 50 μl of IN NaOH. The non-enzymatic hydrolysis of the substrate was corrected by measuring the control without the addition of the enzyme. The amount of p-nitrophenol produced was determined from the absorbance at 410 nm. To determine the kinetic parameter, Km, the initial velocities were measured at various substrate concentrations and the data were fitted to the Michaelis equation where velocity=(Vmax*[S])/(Km+[S]), and [S]=substrate reaction concentration.
(§5) The effect of the compounds on PTP was evaluated at 25° C. using pNPP or FDP as substrate. PTP was pre-incubated for fifteen minutes with various concentrations of compound. Substrate was then added at a fixed concentration (usually equal to the Km previously calculated). After 10 minutes, NaOH was added to stop the reaction. The hydrolysis of pNPP was followed at 410 nm on the Biotek Powerwave 200 microplate scanning spectrophotometer. The percent inhibition was calculated as follows: Percent Inhibition=[(control signal−compound signal)/control signal] ×100%. The IC50 was then determined by interpolation of a percent inhibition versus compound concentration plot.
(§6) Plasmids designed for bacterial GST-PTP fusion protein expression were derived by insertion of PCR-generated human PTP fragments into pGEX vectors (Pharmacia Biotech). Several of these constructs were then used to subclone phosphatases into pFastBac-1for expression in Sf-9 insect cells. Oligonucleotides used for the initial amplification of PTP genes are shown below. The cDNAs were prepared using the Gilbo BRL superscript preamplification system on RNAs purchased from Clontech.
SHP-2 cDNA was used as described earlier (Vogel W., et al.,1993, Science, 259:1611-4). The catalytic domain was amplified using the following oligonucleotides 5′oligo: 5′-[…]-3′ (SEQ ID NO: 2) 3′oligo: 5′-[…]-3′ (SEQ ID NO: 3) and subsequently subcloned into BamH1-Xba-1 sites. It was then ligated into pfas Bac-G2T BamH1-Xba-1 sites.

PTP 1B = biological target: T2, PTP 1B (Homo sapiens, UniProt P18031); conditions: pNPP or FDP as substrate, 25° C.; read-out: PTP IC50 1B
T2 construct: made in house; host or cells: Sf-9 insect cells (pFastBac-G2T)
T2 sequence (P18031 1-435): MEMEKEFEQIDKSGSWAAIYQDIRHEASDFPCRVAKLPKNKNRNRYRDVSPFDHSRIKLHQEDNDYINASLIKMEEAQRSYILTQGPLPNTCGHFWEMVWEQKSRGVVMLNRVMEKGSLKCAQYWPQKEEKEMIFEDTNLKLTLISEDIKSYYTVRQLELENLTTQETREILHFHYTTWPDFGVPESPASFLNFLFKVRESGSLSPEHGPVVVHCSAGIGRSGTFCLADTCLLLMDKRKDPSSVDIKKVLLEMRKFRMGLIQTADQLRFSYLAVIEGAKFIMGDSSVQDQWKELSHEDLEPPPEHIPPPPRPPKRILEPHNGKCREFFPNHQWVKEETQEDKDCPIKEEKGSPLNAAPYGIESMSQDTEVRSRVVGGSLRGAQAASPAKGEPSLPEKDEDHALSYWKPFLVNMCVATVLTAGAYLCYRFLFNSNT
Experimental: as §1, §2, §3, §4, §5, §6
The PTP1b cDNA was amplified from human placenta single strand cDNA (Clontech RNA) using the following oligonucleotides: 5′oligo: 5′-[…] (SEQ ID NO: 4) 3′oligo: 5′-[…] (SEQ ID NO: 5) It was subsequently ligated into pFasBac G2TBamH1Xba-1 sites.

PTP ALPHA = biological target: T3, PTP ALPHA (Homo sapiens, UniProt P18433); conditions: 25° C.
T3 construct: RTPα intracellular domain construct was obtained; made in house; host or cells: E. coli BL-21 (pGEX 3X)
Experimental: as §1, §2, §3, §4, §5, §6
RTPα intracellular domain construct was obtained, Schlessinger et al., U.S. Pat. No. 5,888,794, the contents of which are hereby incorporated in their entirety into the present application. The RTPα fragment was cloned into pGEX 3× using the following procedure. The portion from EclX I/Xma III/Eag I (N-terminus blunted by Klenow) to Eco RV was cloned into the Sma I site. The EclX I site is approximately 15 residues downstream of the transmembrane domain.

PTP BETA = biological target: T4, PTP BETA (Homo sapiens, UniProt P23467); conditions: pNPP or FDP as substrate, 25° C.; read-out: PTP IC50 Beta
T4 construct: The catalytic domain was amplified using the following oligonucleotides; made in house; host or cells: E. coli BL-21 (pGEX 6P-1)
T4 sequence (P23467 1653-1997): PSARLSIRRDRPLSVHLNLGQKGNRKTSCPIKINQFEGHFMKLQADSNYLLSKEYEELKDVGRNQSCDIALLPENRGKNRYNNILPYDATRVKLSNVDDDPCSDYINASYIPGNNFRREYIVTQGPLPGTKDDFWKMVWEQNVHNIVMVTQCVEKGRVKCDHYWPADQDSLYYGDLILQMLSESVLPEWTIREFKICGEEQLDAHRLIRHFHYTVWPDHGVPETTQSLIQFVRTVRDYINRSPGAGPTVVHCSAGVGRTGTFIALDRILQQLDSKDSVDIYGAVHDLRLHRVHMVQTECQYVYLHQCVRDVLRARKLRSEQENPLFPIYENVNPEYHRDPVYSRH
Experimental: as §1, §2, §3, §4, §5, §6
The PTP Beta cDNA used has been described earlier (Levy et al., 1993, J. Biol. Chem, 268:10573-10581). The catalytic domain was amplified using the following oligonucleotides: 5′oligo: 5′-[…]-3′ (SEQ ID NO: 16) 3′oligo: 5′-[…]-3′ (SEQ ID NO: 17) and subsequently cloned into the Eco RI/Xho I sites of pGEX 6P-1.

| Compound | IC50 (PTP SHP2) | IC50 (PTP 1B) | IC50 (PTP ALPHA) | IC50 (PTP BETA) |
| --- | --- | --- | --- | --- |
| O=S(=O)(c1ccc(CCc2ccc(S(=O)(=O)C(F)(F)F)cc2)cc1)C(F)(F)F [Example 4, 1,2-Bis(4-trifluoromethylsulfonylphenyl)ethane] | > 100 µM | > 100 µM | > 100 µM | 6.8 µM |
| O=C(NCc1ccc(S(=O)(=O)C(F)(F)F)cc1)c1ccc(S(=O)(=O)C(F)(F)F)cc1 [Example 5, N-(4-Trifluoromethylsulfonylbenzyl)-4-trifluoromethylsulfonylbenzamide] | > 100 µM | > 100 µM | > 100 µM | 44.8 µM |
| O=C(NCc1ccc(S(=O)(=O)C(F)(F)F)cc1)c1ccccc1 [Example 6, N-(4-Trifluoromethylsulfonylbenzyl)benzamide] | > 100 µM | > 100 µM | > 100 µM | > 100 µM |
| CCOC(=O)COc1ccc(S(=O)(=O)c2ccc(Oc3ccc(S(=O)(=O)C(F)(F)F)cc3)cc2)cc1 [Example 19, {4-[4-(4-trifluoromethanesulfonyl-phenoxy)-benzenesulfonyl]-phenoxy}-acetic acid ethyl ester] | > 100 µM | 42.5 µM | > 100 µM | 1.9 µM |
| O=[N+]([O-])c1cc(S(=O)(=O)C(F)(F)F)ccc1Oc1cc(CN2CCOCC2)c(Oc2ccc(S(=O)(=O)C(F)(F)F)cc2[N+](=O)[O-])cc1CN1CCOCC1 [Example 23, 3,6-Bis-(morpholin-4-ylmethyl)-2,5-bis-(2-nitro-4-trifluoromethanesulfonyl-phenoxy)-benzene] | 27.6 µM | 11.6 µM | > 100 µM | 1.1 µM |
| CN(C)CC(COc1ccc(S(=O)(=O)C(F)(F)F)cc1[N+](=O)[O-])Oc1ccc(S(=O)(=O)C(F)(F)F)cc1[N+](=O)[O-] (stereo not shown) [Example 24, [2,3-Bis-(2-nitro-4-trifluoromethanesulfonyl-phenoxy)-propyl]-dimethyl-amine] | > 100 µM | > 100 µM | > 100 µM | 5.1 µM |
| CCNc1ccc(S(=O)(=O)C(F)(F)F)cc1NC(=O)Cc1ccc(S(C)(=O)=O)cc1 [Example 25, N-(2-Ethylamino-5-trifluoromethanesulfonyl-phenyl)-2-(4-methanesulfonyl-phenyl)-acetamide] | > 100 µM | 16.4 µM | > 100 µM | 0.35 µM |
| CCOC(=O)c1cc(Oc2ccc(S(=O)(=O)C(F)(F)F)cc2[N+](=O)[O-])c(C(=O)OCC)cc1O [Example 26, 2-Hydroxy-5-(2-nitro-4-trifluoromethanesulfonyl-phenoxy)-terephthalic acid diethyl ester] | > 100 µM | > 100 µM | > 100 µM | 2.9 µM |
| O=C(O)Cc1ccccc1CC(=O)Nc1cccc(S(=O)(=O)C(F)(F)F)c1 [Example 27, {2-[(3-Trifluoromethanesulfonyl-phenylcarbamoyl)-methyl]-phenyl}-acetic acid] | > 100 µM | > 100 µM | > 100 µM | 61.4 µM |

Continued by falling IC50 (PTP SHP2), values first:

| IC50 (PTP SHP2) | IC50 (PTP 1B) | IC50 (PTP ALPHA) | IC50 (PTP BETA) | Compound |
| --- | --- | --- | --- | --- |
| 74.5 µM | 44.9 µM | > 100 µM | 17.2 µM | O=C(c1ccccc1)N(Cc1ccc(S(=O)(=O)C(F)(F)F)cc1)Cc1ccc(S(=O)(=O)C(F)(F)F)cc1 [Example 3, N,N-Bis(4-trifluoromethylsulfonylbenzyl)benzamide] |
| 56.8 µM | 35.3 µM | > 100 µM | 3.1 µM | O=C(Cc1cccc(CC(=O)Nc2cccc(S(=O)(=O)C(F)(F)F)c2)c1)Nc1cccc(S(=O)(=O)C(F)(F)F)c1 [Example 21, N-(3-Trifluoromethanesulfonyl-phenyl)-2-{3-[(3-trifluoromethanesulfonyl-phenylcarbamoyl)-methyl]-phenyl}-acetamide] |
| 54.3 µM | 43.3 µM | > 100 µM | 8.7 µM | O=C(Cc1ccccc1CC(=O)Nc1cccc(S(=O)(=O)C(F)(F)F)c1)Nc1cccc(S(=O)(=O)C(F)(F)F)c1 [Example 20, N-(3-Trifluoromethanesulfonyl-phenyl)-2-{2-[(3-trifluoromethanesulfonyl-phenylcarbamoyl)-methyl]-phenyl}-acetamide] |
| 42.6 µM | 55.7 µM | > 100 µM | 3.5 µM | O=S(=O)(c1ccc(COc2ccc(S(=O)(=O)C(F)(F)F)cc2)cc1)C(F)(F)F [Example 2, 4-Trifluoromethylsulfonylbenzyl 4-trifluoromethylsulfonylphenyl ether] |
| 18.4 µM | 16.4 µM | 40.4 µM | 13.5 µM | O=C(O)c1ccc(Oc2cccc(Oc3ccc(S(=O)(=O)C(F)(F)F)cc3)c2)cc1 [Example 18, 4-[3-(4-Trifluoromethanesulfonyl-phenoxy)-phenoxy]-benzoic acid] |
| 17.9 µM | 27.6 µM | 36.2 µM | 3.2 µM | O=C(O)Cc1cccc(CC(=O)Nc2cccc(S(=O)(=O)C(F)(F)F)c2)c1 [Example 28, {3-[(3-Trifluoromethanesulfonyl-phenylcarbamoyl)-methyl]-phenyl}-acetic acid] |
| 16.3 µM | 25.7 µM | > 100 µM | 1.4 µM | O=C(Cc1ccc(CC(=O)Nc2cccc(S(=O)(=O)C(F)(F)F)c2)cc1)Nc1cccc(S(=O)(=O)C(F)(F)F)c1 [Example 22, N-(3-Trifluoromethanesulfonyl-phenyl)-2-{4-[(3-trifluoromethanesulfonyl-phenylcarbamoyl)-methyl]-phenyl}-acetamide] |
